From ChEMBL document CHEMBL1201862, “PubChem BioAssay data set” (2004)
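Briefly, cells in 96-well plates were exposed to five compound concentrations for 48 h, and endpoints were estimated by linear interpolation. Here, GI50 denotes the concentration required for 50% inhibition of growth.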 The source made the active and inactive calls. No stated cut-off is given here; in the data, active = GI50 up to about 1.1 µM and inactive = higher.

Legend:
Test in all cases: DTP human tumour cell line panel, 48 h
[1] = test system: DLD-1
[2] = test system: DMS-114
[3] = test system: DMS-273
[4] = test system: HCC 2998
[5] = test system: HOP-18
[6] = test system: MCF7
[7] = test system: Malme-3M
[8] = test system: NCI-H522
[9] = test system: NCI/ADR-RES
[10] = test system: SK-OV-3
[11] = test system: SNB-78

Measured: GI50

Cc1c2c(cc3c1[nH]c1ccccc13)C=NCC2
inactive: [1] 4.2 µM | [2] 6.9 µM | [3] 12.6 µM | [4] 21.5 µM | [5] 9.62 µM | [6] 2.92 µM | [7] 6.61 µM | [8] 12.9 µM | [9] 12.2 µM | [10] 46.8 µM | [11] 19.7 µM

CC(=O)NC1=C[C@@H]([C@H]2COC(C)(C)O2)OC1=O
inactive: [1] > 100 µM | [2] > 100 µM | [3] > 100 µM | [4] 99.3 µM | [5] > 100 µM | [6] > 100 µM | [7] > 100 µM | [8] > 100 µM | [9] > 100 µM | [10] > 100 µM | [11] > 100 µM

CCCCOc1ccc(OCCCCCCCCCC[N+](C)(C)C)cc1
inactive: [1] 6.38 µM | [2] 2.05 µM | [3] 1.51 µM | [4] 1.95 µM | [5] 3.42 µM | [6] 3.44 µM | [7] 4.37 µM | [8] 1.7 µM | [9] 58.9 µM | [10] 2.89 µM | [11] 2.38 µM

N=C(N)Nc1ncccc1[N+](=O)[O-]
inactive: [1] > 100 µM | [2] 15.8 µM | [3] > 100 µM | [4] 55.2 µM | [5] > 100 µM | [6] 25.7 µM | [7] 44.6 µM | [8] > 100 µM | [9] > 100 µM | [10] > 100 µM | [11] > 100 µM

CSc1nc(NC2OCC(O)C(O)C2O)c(N)c(=O)[nH]1 (stereo not given)
inactive: [1] > 100 µM | [2] > 100 µM | [3] > 100 µM | [4] > 100 µM | [5] > 100 µM | [6] > 100 µM | [7] > 100 µM | [8] > 100 µM | [9] > 100 µM | [10] > 100 µM | [11] > 100 µM

Nc1[nH]cnc2ncnc1-2 [ADENINE]
inactive: [1] 135 µM | [2] 84.1 µM | [3] 81.1 µM | [4] > 125 µM | [5] 109 µM | [6] > 21.3 µM | [8] 50.7 µM | [9] 46.2 µM | [10] > 250 µM | [11] 114 µM
